The values that follow come from patent EP3227262B1, “SULFIDE ALKYL AND PYRIDYL REVERSE SULFONAMIDE COMPOUNDS FOR HBV TREATMENT” (Novira Therapeutics Inc., priority 2014, dated 2016).

Molecules are shown by their SMILES. Bounds are passed on as bounds.

The test system of this test is HBV. The test can be described thus: Inhibition of HBV replication dot-blot assay in HBV-producing hepatoma cell line. It counts as cell-based. The note with it: Hepatitis B virus, 144 h; activity in Dot-Blot assay; HepG2-2.2.15 cells; reduction in HBV DNA levels, six days. Here is the method: Compounds active in the HBV assembly assay are tested for their activity and toxicity in cellular assay. In the first anti-viral assay, the ability of compounds to inhibit HBV replication in an HBV-producing hepatoma cell line using the dot-blot method is evaluated.
(§1) Briefly, confluent monolayers of HepG2-2.2.15 cells are incubated with complete medium containing various concentrations of a test compound. Three days later, the culture medium is replaced with fresh medium containing the appropriately diluted test compound. Six days following the initial administration of the test compound, the cell culture supernatant is collected, and cell lysis is performed. The samples are applied onto Nylos membranes and DNA is immobilized to the membrane by UV cross-linking. After pre-hybridization, the HBV probe is added and the hybridization is performed overnight. The membranes are exposed to the KODAK films; antiviral activity is calculated from the reduction in HBV DNA levels (EC50). The EC50 for antiviral activity is calculated from the dose response curves of active compounds. Assay performance over time is monitored by the use of the standard positive control compounds ETV, BAY 41-4109, and HAP-1.
Selected compounds are tested for their activity and toxicity in cellular assay. In the first anti-viral assay, the ability of compounds to inhibit HBV replication in an HBV-producing hepatoma cell line using the dot-blot method is evaluated.
as §1, with “Confluent monolayers” for “Briefly, confluent monolayers”, “lysis was” for “lysis is”
On to `O=C(Nc1ccc(F)c(Cl)c1)c1ccc(F)c(SC2CCCOC2)c1` (racemic) [Compound 64, (±)-N-(3-Chloro-4-fluorophenyl)-4-fluoro-3-((tetrahydro-2H-pyran-3-yl)thio)benzamide], for which the EC50 – broadly, the concentration at which the effect is half-maximal – was below 10 µM.
`O=C(Nc1ccc(F)c(Cl)c1)c1ccc(F)c(SC2CCCCC2F)c1` (racemic) [Compound 72, (±)-N-(3-Chloro-4-fluorophenyl)-4-fluoro-3-((2-fluorocyclohexyl)thio)benzamide] displayed an EC50 below 10 µM.
As for `O=C(O)CC1CCC(Sc2cc(C(=O)Nc3cc(F)c(F)c(F)c3)ccc2F)C1` (racemic) [Compound 101, (±)-2-(3-((2-Fluoro-5-((3,4,5-trifluorophenyl)carbamoyl)phenyl)thio)cyclopentyl)acetic acid], the figure is below 10 µM; as for `O=C(O)CC1CCC(Sc2cc(C(=O)Nc3ccc(F)c(Cl)c3)ccc2F)C1` (racemic) [Compound 102, (±)-2-(3-((5-((3-Chloro-4-fluorophenyl)carbamoyl)-2-fluorophenyl)thio)cyclopentyl)acetic acid], below 10 µM.
`O=C(O)CC1CCC(Sc2cc(C(=O)Nc3ccc(F)c(F)c3)ccc2F)C1` (racemic) [Compound 105, (±)-2-(3-((5-((3,4-Difluorophenyl)carbamoyl)-2-fluorophenyl)thio)cyclopentyl)acetic acid] registered an EC50 below 10 µM.
For `O=C(Nc1ccc(F)c(Cl)c1)c1ccnc(NS(=O)(=O)C2CCOC2)c1` (racemic) [Compound 161, (±)-N-(3-Chloro-4-fluorophenyl)-2-(tetrahydrofuran-3-sulfonamido)isonicotinamide], the EC50 was below 10 µM.
The value for `O=C(Nc1ccc(F)c(Cl)c1)c1ccnc(NS(=O)(=O)C2CCCOC2)c1` (racemic) [Compound 179, (±)-N-(3-Chloro-4-fluorophenyl)-2-(tetrahydro-2H-pyran-3-sulfonamido)isonicotinamide] was below 10 µM; that for `O=C(Nc1ccc(F)c(Cl)c1)c1cccc(NS(=O)(=O)C2CCOC2)c1` (racemic) [Compound 202, (±)-N-(3-chloro-4-fluorophenyl)-3-(tetrahydrofuran-3-sulfonamido)benzamide] was below 10 µM.
In the case of `O=C(Nc1ccc(F)c(Cl)c1)c1cccc(NS(=O)(=O)CC2CCCO2)c1` (racemic) [Compound 203, (±)-N-(3-chloro-4-fluorophenyl)-3-((tetrahydrofuran-2-yl)methylsulfonamido)benzamide], the EC50 is below 10 µM.
Take `COCC(C)S(=O)(=O)Nc1cccc(C(=O)Nc2ccc(F)c(Cl)c2)c1` (racemic) [Compound 204, (±)-N-(3-chloro-4-fluorophenyl)-3-(2-methoxy-1-methylethylsulfonamido)benzamide]: the EC50 is below 10 µM.
`CC1OCCC1S(=O)(=O)Nc1cccc(C(=O)Nc2ccc(F)c(Cl)c2)c1` (racemic) [Compound 205, (±)-N-(3-chloro-4-fluorophenyl)-3-(2-methyltetrahydrofuran-3-sulfonamido)benzamide]: the EC50 was below 10 µM.
Molecule `O=C(Nc1ccc(F)c(Cl)c1)c1cccc(NS(=O)(=O)C2CS(=O)(=O)CC2O)c1` (racemic) [Compound 206, (±)-N-(3-chloro-4-fluorophenyl)-3-(4-hydroxy-1,1-dioxidotetrahydrothiophene-3-sulfonamido)benzamide] gave an EC50 below 10 µM.
With `O=C(Nc1cc(F)c(F)c(F)c1)c1ccc(F)c(SC2CCCC2)c1` [Compound 3, 3-(Cyclopentylthio)-4-fluoro-N-(3,4,5-trifluorophenyl)benzamide], the concentration giving a half-maximal response (EC50) is below 10 µM.
The value for `CC(C)(C)Sc1cc(C(=O)Nc2cc(F)c(F)c(F)c2)ccc1F` [Compound 5, 3-(tert-Butylthio)-4-fluoro-N-(3,4,5-trifluorophenyl)benzamide] was below 10 µM; that for `O=C(Nc1cc(F)c(F)c(F)c1)c1ccc(F)c(SCCO)c1` [Compound 7, 4-Fluoro-3-((2-hydroxyethyl)thio)-N-(3,4,5-trifluorophenyl)benzamide] was below 10 µM.
The value for `Cc1cc(NC(=O)c2ccc(F)c(SC3CCCCC3)c2)ccc1F` [Compound 8, 3-(Cyclohexylthio)-4-fluoro-N-(4-fluoro-3-methylphenyl)benzamide] was below 10 µM; that for `Cc1cc(NC(=O)c2ccc(F)c(SC3CCCC3)c2)ccc1F` [Compound 9, 3-(Cyclopentylthio)-4-fluoro-N-(4-fluoro-3-methylphenyl)benzamide] was below 10 µM; that for `O=C(Nc1cc(F)c(F)c(F)c1)c1ccc(F)c(SCCCO)c1` [Compound 17, 4-Fluoro-3-((3-hydroxypropyl)thio)-N-(3,4,5-trifluorophenyl)benzamide] was below 10 µM.
For `CC(C)(O)CCSc1cc(C(=O)Nc2cc(F)c(F)c(F)c2)ccc1F` [Compound 19, 4-Fluoro-3-((3-hydroxy-3-methylbutyl)thio)-N-(3,4,5-trifluorophenyl)benzamide], the EC50 was below 10 µM.
Molecule `O=C(Nc1cc(F)c(F)c(F)c1)c1ccc(F)c(SCCCCO)c1` [Compound 23, 4-Fluoro-3-((4-hydroxybutyl)thio)-N-(3,4,5-trifluorophenyl)benzamide] had an EC50 below 10 µM.
The molecule `O=C(Nc1ccc(F)c(Cl)c1)c1ccc(F)c(SCCO)c1` [Compound 26, N-(3-Chloro-4-fluorophenyl)-4-fluoro-3-((2-hydroxyethyl)thio)benzamide] yielded an EC50 below 10 µM.
`O=C(Nc1ccc(F)c(Cl)c1)c1ccc(F)c(SCCCO)c1` [Compound 27, N-(3-Chloro-4-fluorophenyl)-4-fluoro-3-((3-hydroxypropyl)thio)benzamide] returned an EC50 below 10 µM.
`O=C(Nc1ccc(F)c(Cl)c1)c1ccc(F)c(SCC2CCOCC2)c1` [Compound 47, N-(3-Chloro-4-fluorophenyl)-4-fluoro-3-(((tetrahydro-2H-pyran-4-yl)methyl)thio)benzamide] returned an EC50 below 10 µM.
Molecule `O=C(Nc1cc(F)c(F)c(F)c1)c1c[nH]c(=O)c(SC2CCCC2)c1` [Compound 48, 5-(Cyclopentylthio)-6-oxo-N-(3,4,5-trifluorophenyl)-1,6-dihydropyridine-3-carboxamide] displayed an EC50 below 10 µM.
The molecule `CC(C)(Sc1cc(C(=O)Nc2ccc(F)c(Cl)c2)ccc1F)C(=O)O` [Compound 51, 2-((5-((3-Chloro-4-fluorophenyl)carbamoyl)-2-fluorophenyl)thio)-2-methylpropanoic acid] displayed an EC50 below 10 µM.
As for `O=C(Nc1ccc(F)c(Cl)c1)c1ccc(F)c(SC2CCCCCC2)c1` [Compound 52, N-(3-Chloro-4-fluorophenyl)-3-(cycloheptylthio)-4-fluorobenzamide], the EC50 is below 10 µM.
As for `O=C(Nc1ccc(F)c(Cl)c1)c1ccc(F)c(SCC2COC2)c1` [Compound 60, N-(3-Chloro-4-fluorophenyl)-4-fluoro-3-((oxetan-3-ylmethyl)thio)benzamide], the figure is below 10 µM.
On to `O=C(Nc1ccc(F)c(Cl)c1)c1ccc(F)c(SC2COC2)c1` [Compound 65, N-(3-Chloro-4-fluorophenyl)-4-fluoro-3-(oxetan-3-ylthio)benzamide], for which the EC50 was below 10 µM.
In turn, `COc1ccc(C(=O)Nc2ccc(F)c(Cl)c2)cc1SC1CCCCC1` [Compound 69, N-(3-Chloro-4-fluorophenyl)-3-(cyclohexylthio)-4-methoxybenzamide] returned an EC50 below 10 µM.
As for `COc1ccc(C(=O)Nc2ccc(F)c(F)c2)cc1SC1CCCCC1` [Compound 80, 3-(Cyclohexylthio)-N-(3,4-difluorophenyl)-4-methoxybenzamide], the figure is below 10 µM; as for `O=C(Nc1cc(F)c(F)c(F)c1)c1ccnc(NS(=O)(=O)C2CC2)c1` [Compound 127, 2-(Cyclopropanesulfonamido)-N-(3,4,5-trifluorophenyl)isonicotinamide], below 10 µM.
On to `O=C(Nc1ccc(F)c(F)c1)c1ccnc(NS(=O)(=O)C2CC2)c1` [Compound 128, 2-(Cyclopropanesulfonamido)-N-(3,4-difluorophenyl)isonicotinamide], for which the EC50 was below 10 µM.
In turn, `CC1(S(=O)(=O)Nc2cc(C(=O)Nc3ccc(F)c(Cl)c3)ccn2)CC1` [Compound 130, N-(3-Chloro-4-fluorophenyl)-2-(1-methylcyclopropanesulfonamido)isonicotinamide] returned an EC50 below 10 µM.
Turning to `CCS(=O)(=O)Nc1cc(C(=O)Nc2ccc(F)c(Cl)c2)ccn1` [Compound 131], the concentration giving a half-maximal response (EC50) is below 10 µM.
In the case of `CCCS(=O)(=O)Nc1cc(C(=O)Nc2ccc(F)c(Cl)c2)ccn1` [Compound 133, N-(3-Chloro-4-fluorophenyl)-2-(propylsulfonamido)isonicotinamide], the EC50 is below 10 µM.
Molecule `O=C(Nc1ccc(F)c(Cl)c1)c1ccnc(NS(=O)(=O)C2CCCCC2)c1` [Compound 134, N-(3-Chloro-4-fluorophenyl)-2-(cyclohexanesulfonamido)isonicotinamide] showed an EC50 below 10 µM.
